Measurements taken from patent US10377770B2 (Novartis AG, priority 2015, dated 2019).
pIC50: −log10 of the molar value.

Target: C-Raf FL (full length CRAF with Y340E and Y341E activating mutations, co-expressed with h14-3-3 zeta) (Homo sapiens (Human), UniProt P04049, Y340E/Y341E)
Assay: In vitro Raf activity determination, AlphaScreen p-MEK readout, c-Raf (C-Raf FL)
Format: biochemical
Settings: c-Raf approximately 4 nM, ATP 1 μM, pre-incubation 60 minutes, reaction 1 hour
How it was run: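 Phosphorylation of kinase-dead biotinylated MEK1 (~10 nM) by C-Raf FL (~4 nM) read by AlphaScreen luminescence with anti-phospho-MEK1/2 after EDTA stop. ATP was 1 μM, with a 1 h reaction at room temperature. Compounds were pre-incubated with enzyme and substrate for 60 min in Tris/MgCl2 buffer, pH 7.5.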

Substance: N-(3-(8-(2- hydroxyethyl)-7- oxo- 1,2,4,5,5a,6,7,8- octahydropyrido[3′, 2′:2,3][1,4]diazepino [1,7- d][1,4]oxazepin- 11-yl)-4- methylphenyl)-2- (trifluoromethyl) isonicotinamide [Example 320]
- pIC50: 9.10
